These results are taken from patent publication US20260138961A1, “MODULATORS OF MITOCHONDRIAL DNA REPLICATION” (Pretzel Therapeutics, Inc., priority 2022, published 2026).

Structures are written as SMILES.

In this test the target is T1, POLγA:R309C (Homo sapiens, UniProt P54098, R309C).
T1 sequence (P54098 1-1239 R309C): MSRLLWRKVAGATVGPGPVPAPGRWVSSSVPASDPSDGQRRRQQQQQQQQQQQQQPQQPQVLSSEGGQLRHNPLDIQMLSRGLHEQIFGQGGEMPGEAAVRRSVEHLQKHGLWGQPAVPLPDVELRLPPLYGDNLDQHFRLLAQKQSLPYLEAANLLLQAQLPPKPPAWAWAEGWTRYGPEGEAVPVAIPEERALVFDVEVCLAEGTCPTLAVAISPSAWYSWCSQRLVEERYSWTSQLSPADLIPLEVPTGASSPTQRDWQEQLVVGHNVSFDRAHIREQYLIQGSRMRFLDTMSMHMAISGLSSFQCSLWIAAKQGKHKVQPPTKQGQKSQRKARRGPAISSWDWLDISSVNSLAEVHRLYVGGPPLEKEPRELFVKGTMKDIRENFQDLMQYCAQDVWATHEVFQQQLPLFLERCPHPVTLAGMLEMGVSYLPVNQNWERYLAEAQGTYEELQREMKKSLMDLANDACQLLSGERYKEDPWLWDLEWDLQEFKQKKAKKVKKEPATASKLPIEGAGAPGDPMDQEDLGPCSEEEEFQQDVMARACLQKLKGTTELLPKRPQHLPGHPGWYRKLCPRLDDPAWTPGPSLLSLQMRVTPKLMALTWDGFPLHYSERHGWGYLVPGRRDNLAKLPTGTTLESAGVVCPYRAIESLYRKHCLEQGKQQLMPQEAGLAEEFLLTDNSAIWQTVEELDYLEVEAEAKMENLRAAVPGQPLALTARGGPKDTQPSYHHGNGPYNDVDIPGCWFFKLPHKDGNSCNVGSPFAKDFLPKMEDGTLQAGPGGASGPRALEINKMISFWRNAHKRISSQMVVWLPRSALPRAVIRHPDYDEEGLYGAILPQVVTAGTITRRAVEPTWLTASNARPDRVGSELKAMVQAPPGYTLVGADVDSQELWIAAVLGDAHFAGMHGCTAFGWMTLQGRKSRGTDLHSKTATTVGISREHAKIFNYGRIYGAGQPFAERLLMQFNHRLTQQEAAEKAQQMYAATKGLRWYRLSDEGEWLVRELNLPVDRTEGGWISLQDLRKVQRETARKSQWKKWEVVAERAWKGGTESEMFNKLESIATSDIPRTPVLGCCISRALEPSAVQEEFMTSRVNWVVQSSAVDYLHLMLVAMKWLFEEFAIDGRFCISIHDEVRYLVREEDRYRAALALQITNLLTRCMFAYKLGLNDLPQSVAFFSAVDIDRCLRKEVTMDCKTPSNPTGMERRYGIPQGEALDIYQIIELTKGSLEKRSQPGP
T1 sequence (Q9UHN1 1-485 partner): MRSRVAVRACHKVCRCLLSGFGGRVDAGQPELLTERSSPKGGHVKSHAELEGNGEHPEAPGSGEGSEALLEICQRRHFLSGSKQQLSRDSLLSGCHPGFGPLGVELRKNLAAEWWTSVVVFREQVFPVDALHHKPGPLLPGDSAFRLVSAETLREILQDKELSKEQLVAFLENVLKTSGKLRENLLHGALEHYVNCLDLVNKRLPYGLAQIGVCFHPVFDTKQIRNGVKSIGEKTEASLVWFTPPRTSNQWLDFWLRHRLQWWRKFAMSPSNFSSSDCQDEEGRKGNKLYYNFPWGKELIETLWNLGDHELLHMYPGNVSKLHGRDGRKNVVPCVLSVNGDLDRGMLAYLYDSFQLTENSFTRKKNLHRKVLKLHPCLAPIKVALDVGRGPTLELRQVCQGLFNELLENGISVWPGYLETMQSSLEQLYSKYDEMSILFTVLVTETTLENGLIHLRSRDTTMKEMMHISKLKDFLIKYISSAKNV
Briefly: DNA polymerization assay, POLγA:R309C mutant. To be noted: stimulation of polymerase activity, primed M13mp18 ssDNA, 37° C. 2 hours. The test is classed as biochemical. The procedure: DNA Polymerization Assay to Monitor Effects on Human Wildtype POLγ and Four Disease-Causing Mutant Variants of Human POLγ.
The ability of small molecules to stimulate the polymerase activity of POLγ was analyzed in a quantitative fluorescence SYBR Green I assay with fluorescence intensity (FI) readout.
In the presence of dNTPs, wild type human POLγ and mutant derivatives thereof were incubated with single-stranded, circular M13mp18 ssDNA hybridized to a short DNA oligonucleotide that functions as a primer for initiation of DNA synthesis. POLγ and mutant derivatives thereof will extend the primer and use the M13mp18 molecule as a template to synthesize long stretches of double-stranded DNA. SYBR Green I, which is a double-stranded DNA-binding dye, was used to quantify formation of double-stranded DNA in the reaction. When bound to double-stranded DNA, SYBR Green I fluorescence increases by up to 100-fold.
The assay was performed in the 384-well plate format. Upon addition of compounds, changes in double-stranded DNA synthesis activity can be monitored by following effects on fluorescent intensity.
The reactions also contained the accessory POLγB subunit, and the human mitochondrial single-stranded DNA binding protein (mtSSB).
The DNA template mixture used in the assay contained 0.5 nM primed M13 mp18 ssDNA, 400 nM mtSSB, 0.1 mM Tris-HCl (pH 8.0), 0.1 mM dNTP, 10 mM MgCl2, 0.1 mg/mL BSA, 1 mM TCEP solution, and 0.02% Triton X-100. The DNA template mixture for the wild type protein contained either 100 μM dNTP, 1 μM dNTP, or 0.1 μM dNTP, designated in Table 2 as 100 μM, 1 μM, and 0.1 μM, respectfully.
Microplates with compounds (0.1 μL in each well) to be tested in the assay were prepared from 10 mM compound stocks in 100% DMSO, and equal amounts of DMSO without any compound were added to positive and negative control wells.
The protein mixture was dispensed (5 μL into each well) into compound plates and incubated at 37° C. for 15 minutes. After incubation, 5 μL of the DNA template mixture was dispensed into each well. The plates were then incubated at 37° C. for 2 hours.
During incubation, a combined stop buffer and detection reagent solution was prepared. The buffer contained 25 mM EDTA (pH 8.0), 0.02% Triton X-100, and SYBR Green I [Invitrogen] diluted 10,000× (for fluorescent readout). EDTA will stop the enzymatic reaction by chelating magnesium ions.
Consider `CC[C@@H]1CCCN1C(=O)c1cccc(NS(=O)(=O)c2cc(C)c(Cl)cc2C)c1` [Example 65, (R)-4-chloro-N-(3-(2-ethylpyrrolidine-1-carbonyl)phenyl)-2,5-dimethylbenzenesulfonamide], for which the activity was half-maximal at 5 µM (AC50). That is a single-digit micromolar value.
With `Cc1cnc(-c2cccc(NS(=O)(=O)c3cc(C)c(Cl)cc3C)c2)s1` [Example 21, 4-chloro-2,5-dimethyl-N-(3-(5-methylthiazol-2-yl)phenyl)benzenesulfonamide], the AC50 is 1 µM.
To `Cc1cc(S(=O)(=O)Nc2ccc3ccn(C(C)C)c3c2)c(C)cc1Cl` [Example 69, 4-chloro-N-(1-isopropyl-1H-indol-6-yl)-2,5-dimethylbenzenesulfonamide] belongs 1 µM.
In turn, `Cc1cc(S(=O)(=O)Nc2cccc(-c3cc(C4CC4)[nH]n3)c2)c(C)cc1Cl` [Example 64, 4-chloro-N-(3-(5-cyclopropyl-1H-pyrazol-3-yl)phenyl)-2,5-dimethylbenzenesulfonamide] registered a half-maximal activity concentration (AC50) of 1 µM.
To `Cc1nc2ccc(NS(=O)(=O)c3cc(C)c(Cl)cc3C)cc2o1` [Example 70, 4-chloro-2,5-dimethyl-N-(2-methylbenzo[d]oxazol-6-yl)benzenesulfonamide] belongs 51 µM.
To `Cc1cc2cc(NS(=O)(=O)c3cc(C)c(Cl)cc3C)ccc2[nH]1` [Example 184, 4-chloro-2,5-dimethyl-N-(2-methyl-1H-indol-5-yl)benzenesulfonamide] belongs 8 µM; to `Cc1ccc(C)c(S(=O)(=O)Nc2cccc(-c3nccs3)c2)c1` [Example 60], 0.9 µM.
To `Cc1cc(-c2cccc(NS(=O)(=O)c3cc(C)c(Cl)cc3C)c2)n[nH]1` [Example 66, 4-chloro-2,5-dimethyl-N-(3-(5-methyl-1H-pyrazol-3-yl)phenyl)benzenesulfonamide] belongs 12 µM; to `Cc1cc(S(=O)(=O)Nc2cccc(-c3cc[nH]n3)c2)c(C)cc1Cl` [Example 68, N-(3-(1H-pyrazol-3-yl)phenyl)-4-chloro-2,5-dimethylbenzenesulfonamide], 7 µM; to `Cc1csc(-c2cccc(NS(=O)(=O)c3cc(C)c(Cl)cc3C)c2)n1` [Example 20, 4-chloro-2,5-dimethyl-N-(3-(4-methylthiazol-2-yl)phenyl)benzenesulfonamide], 1 µM.

For orientation: AC50 means the concentration at which the activity in the assay is half-maximal. High values mean weaker potency, low ones greater potency.
